# PubChem BioAssay AID2305 (GlaxoSmithKline (GSK), 2010)
# System: P. falciparum 3D7 growth, pLDH absorbance
# Experiment: P. falciparum 3D7 growth inhibition, dose response, strain 3D7 (AID 2305)
row,Compound,IC50
1,CO/C(=C\C=C\c1cc2cc(Cl)c(Cl)cc2[nH]1)C(=O)NCCCN1CCC(c2ccccc2)CC1,910 nM
2,Cc1nc(N)nc(N)c1-c1ccc(Br)c([N+](=O)[O-])c1,200 nM
3,CC1CCN(Cc2ccc(NC(=O)c3cc4ccc5cccnc5c4[nH]3)cc2)CC1,780 nM
4,O=C(NCCCCN1CCC(c2ccc3c(c2OCCN2CCCC2)CCCC3)CC1)c1ccc(-c2ccc(C(F)(F)F)cc2)cc1,450 nM
5,Cc1ccccc1C1CCN(C2CCC(NC(=O)c3cc(-c4ccccc4)oc3C)CC2)CC1 (stereo not drawn),1030 nM
6,N#Cc1cccc(NC(=O)Nc2ccc3c(c2)CN(Cc2c[nH]c4ncccc24)C3)c1,800 nM
7,CCN(CC)CCN(Cc1ccc(-c2ccc(C(F)(F)F)cc2)cc1)C(=O)Cn1c(CCc2cccc(F)c2F)nc(=O)c2ccccc21,670 nM
8,CN1CCC(N(C)c2nccc(N3CCN(Cc4cncn4Cc4ccccc4)CC3)n2)CC1,700 nM
9,CC(C)CNCc1ccc(-c2ccc(CN(C(=O)Nc3ccccc3)C3CCN(Cc4ccccc4)CC3)cc2)cc1,680 nM
10,CC(C)CN1C(=O)c2ccc(C(=O)Nc3nccs3)cc2C1=O,970 nM
11,Cc1cccc2[nH]c(-c3ccc(-c4cccc(CN5CCN(CCO)CC5)c4)cc3)nc12,730 nM
12,O=S(=O)(NCCN1CCCC1)c1ccc(-c2ccc(CNCc3ccc(F)cc3)cc2)cc1,790 nM
13,COc1cc(C(=O)Nc2ccc3nc(N4CCN(C)CC4)cc(C)c3c2)cc(OC)c1OC,290 nM
14,COc1ccc(-c2nonc2NC(=O)c2ccc(OC(C)C)cc2)cc1OC,630 nM
15,CCc1ccc(NC(=O)c2ccc(CN3CCCN(Cc4cccc(Cl)c4)CC3)cc2)cc1,1110 nM
16,COc1cc(Cc2cnc(N)nc2N)cc(OCCCCc2nn[nH]n2)c1OC,290 nM
17,O=c1cc(NCCCNCc2cccc(OC(F)(F)F)c2)[nH]c2ccccc12,850 nM
18,c1ccc(CN2CCC(NCc3ccc(-c4ccc(CNCc5cccnc5)cn4)cc3)CC2)cc1,880 nM
19,N#CC(c1ccc(F)cc1)c1ccc2c(C(F)(F)F)cc(C(F)(F)F)nc2n1 (stereo not drawn),730 nM
20,Clc1ccc(OCc2ccccc2)c(-c2nc(-c3nc4ccc(Cl)cc4[nH]3)cs2)c1,670 nM
21,Cc1cc(CNCCCCCNCc2cccc([N+](=O)[O-])c2)ccc1O,780 nM
22,c1cc(CNC2CCN(CC3CCCCC3)CC2)cc(-n2ccnc2)c1,650 nM
23,CCCNC(=O)C1CCN(C(c2ccc(Cl)cc2)c2ccc(Cl)cc2)CC1,480 nM
24,NC(N)=NN=Cc1c[nH]c2ccc(-c3ccccc3)cc12,530 nM
25,CCCCN1CCN(CCCNc2c3ccccc3nc3ccccc23)CC1,510 nM

row,Compound,IC50
1,Cc1cc(N[C@@H](Cc2ccccc2)C(=O)NCc2cccs2)nc(Nc2ccccc2)n1,1240 nM
2,Cc1cccc2[nH]c(-c3ccc(-c4cccc(CN5CCCC(O)C5)c4)s3)nc12 (stereo not drawn),940 nM
3,O=C(Nc1ccc(C(F)(F)F)cc1)c1ccc(S(=O)(=O)NC2CCCN(CC3CCCCC3)C2)cc1 (stereo not drawn),720 nM
4,Nc1nc(N)c2c(ccc3c2ccn3Cc2ccc(F)cc2)n1,10 nM
5,O=C(Nc1ccc(CN2CCCCC2)cc1)c1ccc(COc2ccc([N+](=O)[O-])cc2)o1,1000 nM
6,O=C(C=Cc1ccccc1)Nc1ccc(C#CC=Cc2ccc(NC(=O)C=Cc3ccccc3)cc2)cc1,850 nM
7,O=C(C=Cc1ccc(Cl)c(Cl)c1)NCCCCCN1CCC(CCNS(=O)(=O)c2ccc(Br)cc2)CC1,1120 nM
8,CNC(=O)C1Cc2c([nH]c3ccc(Cl)cc23)C2(CCN(CCc3ccccc3)CC2)N1 (stereo not drawn),890 nM
9,CCCNCc1ccc(-c2ccc(CN(CCOC)C(=O)c3ccccc3)cc2)nc1,880 nM
10,C[C@H](Cc1ccc(Oc2ccc(C[C@@H](C)NC[C@H](O)c3cccc(Cl)c3)cc2)cc1)NC[C@H](O)c1cccc(Cl)c1,560 nM
11,COc1ccc2nccc(NC(=O)C3(O)CCC(NCc4ncc5c(c4Cl)OCCO5)CC3)c2n1 (stereo not drawn),250 nM
12,O=C(Nc1ccc(C(=O)OC[C@@H]2CCCN3CCCC[C@H]23)cc1)c1ccc([N+](=O)[O-])cc1,720 nM
13,CS(=O)(=O)CCNCc1cccc(-c2ccc3c(Nc4ccc(Oc5ccccc5)cc4)ccnc3c2)c1,690 nM
14,CC[C@H](NC(=O)c1ccc(NC(=O)OC(C)(C)C)cc1)C(=O)N[C@@H](CO)C(=O)NCCCCc1ccccc1,830 nM
15,COc1ccc(C#Cc2ccc(-c3c(C)[nH]c(C)c(Cl)c3=O)cc2)cc1,70 nM
16,CC(C)(C)c1ccc(NC(=O)c2ccc(CN3CCCN(Cc4ccsc4)CC3)cc2)cc1,720 nM
17,C=C[C@]1(C)C[C@@H](OC(=O)c2cncn(COC)c2=O)[C@]2(C)[C@H](C)CC[C@]3(CCC(=O)[C@H]32)[C@@H](C)[C@@H]1O,880 nM
18,CS(=O)(=O)c1ccc(CCNCc2ccc(-c3ccc(CN(C(=O)C4CCCC4)C4CCN(Cc5ccccc5)CC4)cc3)nc2)cc1,830 nM
19,COc1ccc2nccc(N3CCC(NCCNCc4cc5c(cn4)OCCO5)C3)c2n1 (stereo not drawn),580 nM
20,COc1cc2c(OC)cccc2cc1CNCCCCCCNCc1cc2cccc(OC)c2cc1OC,820 nM
21,CN(C)CCCNC(=O)c1ccccc1Sc1ccccc1C#N,1140 nM
22,CCCN(Cc1nnc(-c2ccco2)o1)C(=O)C1CCCN(C(=O)c2ccc(Cl)cc2)C1 (stereo not drawn),520 nM
23,O=C(/C=C/c1cc(F)cc(C(F)(F)F)c1)N1CCC(CN2CCC(c3c[nH]c4ccccc34)CC2)CC1,760 nM
24,CN1CCN(c2ccc(Nc3ncc(Cl)c(Nc4cccnc4C(N)=O)n3)cc2)CC1,150 nM
25,CCCC(C)n1ccc2c3c(N)nc(N)nc3ccc21 (stereo not drawn),50 nM

row,Compound,IC50
1,CC[C@H]1CN2CC[C@H]1C[C@H]2[C@H](O)c1cc(-c2ccc(C)cc2)nc2ccc(OC)cc12,110 nM
2,COc1ccc(-c2nc3c(N)nc(N)nc3nc2C(C)C)cc1,190 nM
3,CCCCOc1ccc(-c2nc3ccccc3[nH]2)cc1,870 nM
4,Cc1ccc(NC(=O)c2ccc(CN3CCCN(Cc4cccc(O)c4)CC3)cc2)cc1,740 nM
5,CCNC(=O)CCc1cccc(Br)c1,530 nM
6,COc1ccccc1C1CCN(CCCCNC(=O)c2ccc(NC(=O)c3ccc(Cl)cc3)cc2)CC1,240 nM
7,COc1ccc(-c2nccc(NC(N)=NCc3ccccc3)n2)cc1,670 nM
8,COc1ccc(OC)c2c1CCN(C)C2Cc1cccc2ccccc12 (stereo not drawn),1050 nM
9,CN(C)CCOc1ccc(-c2cc(-c3ccc(Cl)c(O)c3)c(-c3ccnc(N)n3)o2)cc1,1320 nM
10,OC(CNc1ccnc(Nc2ccccc2)n1)c1ccc(C(F)(F)F)cc1 (stereo not drawn),610 nM
11,COCCNCc1cccc(-c2cc3nccc(Nc4ccc(Oc5ccccc5)cc4)c3cc2Cl)c1,1380 nM
12,Fc1ccc2nc(-c3ccc(-c4ccc(CNCc5cnn(-c6ccccc6)n5)cc4)cc3)[nH]c2c1,540 nM
13,CN(C)CCCOc1ccc(CCNCc2cccc(Oc3ccc(Cl)cc3)c2)cc1,890 nM
14,Cc1cccc2[nH]c(-c3ccc(-c4cccc(CNCc5cnn(-c6ccccc6)n5)c4)s3)nc12,550 nM
15,CC(=O)Nc1ccc(Nc2c3ccccc3nc3ccccc23)cc1,1020 nM
16,COc1cccc(C2(c3cccc(OC)c3)N=C(N)N(CCCc3ccccc3)C2=O)c1,260 nM
17,CN1CCN(c2ccnc3ccc(NC(=O)Nc4ccc5c(c4)CCC5=O)cc23)CC1,330 nM
18,CN(C)c1ccc(C=Cc2ccc3ccccc3n2)c(Cl)c1,440 nM
19,CC[C@H]1CN2CC[C@H]1C[C@@H]2[C@@H](O)c1ccnc2ccc(OC)cc12,120 nM
20,Nc1c2c(nc3ccc(Oc4ccc(Br)cc4Br)cc13)CCCC2,860 nM
21,COc1ccc2nccc([C@@H](O)CN3CCC(NC(=O)C(c4cccs4)N4CCN(c5ccc(F)cc5)CC4)CC3)c2c1 (stereo partly drawn),820 nM
22,O=c1cc(NCCCNCc2sc(Br)nc2Br)[nH]c2ccccc12,870 nM
23,COC(=O)CCCCOc1c(OC)cc(Cc2cnc(N)nc2N)cc1OC,40 nM
24,COc1cccc(-c2ccc(C(=O)NC3CCN(Cc4ccc(N(C)C)cc4)CC3)s2)c1,1390 nM
25,Cc1cc(NC(=O)c2cccs2)ccc1OC1CCN(Cc2ccc(C#N)cc2)CC1,720 nM

row,Compound,IC50
1,FC(F)(F)c1cc(C(F)(F)F)c2cc(CNCCCNc3nc4ccccc4[nH]3)[nH]c2c1,140 nM
2,COc1cc(OC)cc(-c2nn(-c3ccc([N+](=O)[O-])cc3Cl)c(=S)n2Cc2ccco2)c1,840 nM
3,OC(CNCc1ccccc1OCc1ccccc1)c1cccc(Cl)c1 (stereo not drawn),220 nM
4,Cc1cccc2[nH]c(-c3cccc(-c4cccc(CNCc5cnn(-c6ccccc6)n5)c4)c3)nc12,660 nM
5,CCOCCCNc1nc2cc(OC)c(OC)cc2c2nc(-c3ccccc3)nn12,210 nM
6,CC(C)(C)Oc1ccc(C[C@@H]2NC3(C(=O)N(Cc4ccc(Cl)c(Cl)c4)c4ccccc43)C3C(=O)N(c4ccc(Br)cc4)C(=O)C32)cc1 (stereo partly drawn),1040 nM
7,Cc1cc(N2CCOCC2)nc(Nc2ccc(NC(=O)Nc3ccc(F)cc3)cc2)n1,490 nM
8,CCN(CCN(C)C)Cc1ccc(-c2ccc(NS(=O)(=O)c3cccc(Cl)c3)cc2)cc1,520 nM
9,Cc1cccc2[nH]c(-c3cccc(-c4cccc(CNCc5cccc(N)c5)c4)c3)nc12,540 nM
10,CN1CCN(c2ccnc3ccc(NC(=O)Cc4ccc(Br)c5ccccc45)cc23)CC1,810 nM
11,CC(C)NCc1ccc(-c2ccc(CN3CCCC(c4ccccc4)C3)cc2)c(C(=O)NC2Cc3ccccc3C2)c1 (stereo not drawn),990 nM
12,CC(C)C[C@H](NC(=O)c1cc2ccccc2s1)C(=O)N[C@H]1CCN(Cc2ccc(OC[C@@H]3CCCN3C)c3ccccc23)C1,1160 nM
13,Cc1cccc(NC(=O)NC2CCN(CCCCCNC(=O)/C=C/c3ccc(Cl)c(Cl)c3)CC2)c1,750 nM
14,CCc1ccc(C2CCN(CCCCNC(=O)c3ccc(-c4ccc(C(F)(F)F)cc4)cc3)CC2)c(OCCO)c1,410 nM
15,CCOc1ccc(CNCCCCCCNCc2ccc(OCC)c3ccccc23)c2ccccc12,450 nM
16,O=C(Nc1ccnc(N2CCCN(Cc3cccc(O)c3)CC2)c1)c1ccc(F)cc1,1480 nM
17,Cc1cc(N[C@@H](Cc2ccccc2)C(=O)NC2CCCC2)nc(NCCc2cccs2)n1,1400 nM
18,Fc1ccc2nc(-c3ccc(-c4ccc(CNCCc5cccnc5)cc4)s3)[nH]c2c1,240 nM
19,CCCN(CCC)CCOC(=O)C(OCC)(c1ccccc1)c1ccccc1,870 nM
20,O=C(Nc1ccc(C(F)(F)F)cc1)c1ccc(S(=O)(=O)NC2CCN(CC3CCCCC3)CC2)cc1,730 nM
21,CCCCCCCc1c2c(C)c(C(=O)OCC)nc-2cc2n1CC(C)=C2C,1140 nM
22,CCNc1cc(C(=O)N[C@@H](Cc2ccccc2Cl)[C@H](O)CNC2CCCCC2)cc(N2CCCCS2(=O)=O)c1,800 nM
23,CCN(CC)C(=O)C1CCCN(C(=O)Nc2cc(C(F)(F)F)cc(C(F)(F)F)c2)C1 (stereo not drawn),1000 nM
